Assay results from US9801854B1, “Slow release formulations of cell cycle regulators and anti-cancer agents for local treatment of solid cancer” (THERACOAT LTD., priority 2014, dated 2017).
Where two headings read alike, the source gives them in different places.

Assays:
Format in all cases: cell-based, human
UM-UC-3 cells [1] = experiment: XTT cytotoxicity assay; conditions: for EC50: read-out: EC50 (cell viability); for viability at 1000 µM: Homo sapiens, 1 mM HU 20 hours, wash, untreated cells = 100%
Description: Cells were washed in media to inactivate trypsin before reseeding or analysis.
Hydroxyurea concentrations were selected based upon concentration ranges known in the art.
XTT assay for cytotoxicity was then performed and plates were analyzed in an ELISA reader at a wave length of 490 nm.
Cells were pretreated with 1 mM HU (or DMSO-vehicle control) for 20 hours. […] The percentage of viable cells presented was calculated from untreated cells with viability of 100%.
UM-UC-3 cells were cultured in 96 well microculture plates. Cells were pretreated with 1 mM HU (or DMSO-vehicle control) for 20 hours. Cells were then washed. […] The percentage of viable cells presented was calculated from untreated cells with viability of 100%.
The methods used were as described in the other examples. Briefly, UM-UC-3 cells were cultured in 96 well microculture plates. Cells were pretreated with 1 mM HU (or DMSO-vehicle control) for 2 hours. […] The percentage of viable cells presented in the figures and table was calculated from untreated cells with viability of 100%.

RT-4 cells = experiment: Cell cycle analysis by flow cytometry (PI staining) after HU exposure and withdrawal; conditions: 1 mM HU for 20 hours, wash, 2-10 hours without drug, majority in S phase 4 to 8 hours after wash
Description: (§1) The human bladder cancer cell lines, UM-UC-3 and RT-4, were obtained from the ATCC and grown in RPMI 1640 medium (Gibco) supplemented with 10% v/v fetal calf serum (Gibco), 100 U/ml penicillin and 100 µg/ml streptomycin (Biological Industries). Cells were grown at 37° C., 5% CO2 in a humidified atmosphere and harvested using 0.25% w/v trypsin, 0.02% w/v EDTA. Cells were washed in media to inactivate trypsin before reseeding or analysis. A LSRII Flow cytometer or Cyan Flow Cytometer were used for determining DNA content and cell cycle distribution of UM-UC-3 and RT-4 cells. Cells were seeded in 6 well plates (10^6 cells/well) and incubated overnight. […] When sequential treatment was done, the second drug was administered immediately or 2-48 hours following the wash of the 1st treatment. The 2nd treatment was then applied for additional 2-48 hrs before analysis. […] PI staining was identified by using the red fluorescence (585+/−40 nm). In some experiments, cells harvested as for cell cycle determination were also stained with Annexin V or anti-activated Caspase-3 antibody for identifying apoptotic cells. Annexin V or activated Caspase-3 positive cells were identified using the green fluorescence (530+/−30 nm).

UM-UC-3 cells [2] = experiment: as above; conditions: 1 mM HU for 20 hours, wash, 2-10 hours without drug, majority in S phase 4 to 8 hours after wash
Description: as §1

Structure (SMILES) | EC50 (UM-UC-3 cells [1]; Example 3 conditions: UM-UC-3, MMC 24 hours, XTT) | EC50 (UM-UC-3 cells [1]; Example 4 conditions: UM-UC-3, MMC 8 hours, XTT 48 hours after MMC addition) | cell cycle arrest / synchronization in S phase (RT-4 cells) | cell cycle arrest / synchronization in S phase (UM-UC-3 cells [2]) | viability at 1000 µM (UM-UC-3 cells [1]; UMUC3, Example 3: UM-UC-3, 20 μM MMC, XTT 24 hours after MMC addition) | viability at 1000 µM (UM-UC-3 cells [1]; UMUC3, Example 4: UM-UC-3, 2 hours delay, 10 μM MMC 8 hours, XTT 48 hours after MMC addition)
CO[C@@]12[C@H](COC(N)=O)C3=C(C(=O)C(C)=C(N)C3=O)N1C[C@@H]1N[C@@H]12 [MMC, Mitomycin C] | ~20 µM | 10 µM |  |  |  | 
NC(=O)NO [HU, Hydroxyurea] |  |  | cell cycle synchronization at the S phase | cell cycle synchronization at the S phase | 76.5% | 59.6%
